# In patent publication US20230234942A1, “COMPOUNDS FOR TREATING HUNTINGTON'S DISEASE” (PTC Therapeutics, Inc., priority 2020, published 2023):
# System: Endogenous Huntingtin Protein
# Experiment: Endogenous Huntingtin Protein Assay (ELISA-based MSD electrochemiluminescence)
# Type: cell-based
# Method in brief: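 Endogenous huntingtin measured on MSD plates coated with MW1 (polyglutamine-expanded) or MAB2166 capture antibody; lysates bound overnight at 4 °C. Signal developed with #56565 rabbit monoclonal and goat anti-rabbit SULFO-TAG (0.25 µg/mL, 1 h RT each), electrochemiluminescence read on SI 6000.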
# [1] = Table 2, MSD plates coated with MW1 (expanded polyglutamine) or MAB2166 capture antibody, "inactive" = result above the detection limit of the assay
SMILES,IC50 [1] [nM],"IC50 (Table 3, selected compounds from WO/2019/191229 A1, same MSD assay) [nM]"
"Oc1cc(-c2c[nH]nc2F)ccc1-c1cnc(N2CCN[C@H](C3CC3)C2)nn1 [Cpd 7, 2-{3-[(3R)-3-cyclopropylpiperazin-1-yl]-1,2,4-triazin-6-yl}-5-(3-fluoro-1H-pyrazol-4-yl)phenol]",6.9,
"[2H]C([2H])([2H])Oc1cc(-c2ccc(-c3cnc(N4CCN[C@@H](C(C)C)C4)nn3)c(O)c2)ncn1 [Cpd 10, 5-{6-[(^2H3)methyloxy]pyrimidin-4-yl}-2-{3-[(3S)-3-(propan-2-yl)piperazin-1-yl]-1,2,4-triazin-6-yl}phenol]",9.5,
"COc1cc(-c2ccc(-c3cnc(N4CCN[C@@H](C(C)C)C4)nn3)c(O)c2)nc(OC)n1 [Cpd 207, 5-(2,6-dimethoxypyrimidin-4-yl)-2-{3-[(3S)-3-(propan-2-yl)piperazin-1-yl]-1,2,4-triazin-6-yl}phenol]",10,
"Cc1cncc(-c2ccc(-c3cnc(N4CCN[C@@H](C(C)C)C4)nn3)c(O)c2)n1 [Cpd 143, 5-(6-methylpyrazin-2-yl)-2-{3-[(3S)-3-(propan-2-yl)piperazin-1-yl]-1,2,4-triazin-6-yl}phenol]",634,
"CC(C)(O)[C@H]1CN(c2ncc(-c3ccc(-c4c[nH]nc4F)cc3O)nn2)CCN1 [Cpd 25, 5-(3-fluoro-1H-pyrazol-4-yl)-2-{3-[(3R)-3-(2-hydroxypropan-2-yl)piperazin-1-yl]-1,2,4-triazin-6-yl]phenol]",24.6,
"Oc1cc(-c2cnn3c2CCCC3)ccc1-c1cnc(N2CCNC(C3CC3)C2)nn1 (single isomer, unassigned) [Cpd 277, 2-{3-[(3S)-3-cyclopropylpiperazin-1-yl]-1,2,4-triazin-6-yl}-5-(4,5,6,7-tetrahydropyrazolo[1,5-a]pyridin-3-yl)phenol or 2-{3-[(3R)-3-cyclopropylpiperazin-1-yl]-1,2,4-triazin-6-yl}-5-(4,5,6,7-tetrahydropyrazolo[1,5-a]pyridin-3-yl)phenol]",24.8,
"Cn1cc2cc(-c3ccc(-c4cnc(N5CCN6CCCC6C5)nn4)c(O)c3)cc(F)c2n1 (stereo not drawn) [Cpd 95, 5-(7-fluoro-2-methyl-2H-indazol-5-yl)-2-[3-(hexahydropyrrolo[1,2-a]pyrazin-2(1H)-yl)-1,2,4-triazin-6-yl]phenol]",8.3,
"Cn1cc2cc(-c3cnc(-c4cnc(N5CCN[C@@H](C6CC6)C5)nn4)c(O)c3)cc(F)c2n1 [Cpd 181, 2-{3-[(3S)-3-cyclopropylpiperazin-1-yl]-1,2,4-triazin-6-yl}-5-(7-fluoro-2-methyl-2H-indazol-5-yl)pyridin-3-ol]",6.2,
"Oc1cc(-c2cn[nH]c2F)cc(F)c1-c1cnc(N2CCNC(C3CC3)C2)nn1 (stereo not drawn) [Cpd 32, 2-[3-(3-cyclopropylpiperazin-1-yl)-1,2,4-triazin-6-yl]-3-fluoro-5-(5-fluoro-1H-pyrazol-4-yl)phenol]",40.2,
"CC(C)(C)[C@H]1CN(c2ncc(-c3cc(F)c(-c4cn[nH]c4)cc3O)nn2)CCN1 [Cpd 164, 2-{3-[(3S)-3-tert-butylpiperazin-1-yl]-1,2,4-triazin-6-yl}-4-fluoro-5-(1H-pyrazol-4-yl)phenol]",4,
"Oc1cc(-c2cn[nH]c2)ccc1-c1cnc(N2CCN3CCC[C@H]3C2)nn1 [WO/2019/191229 A1 Cpd 116, reference compound]",,91.4
"CC(C)[C@H]1CN(c2ncc(-c3ccc(-c4ncc(Cl)s4)cc3O)nn2)CCN1 [Cpd 189, 5-(5-chloro-1,3-thiazol-2-yl)-2-{3-[(3S)-3-(propan-2-yl)piperazin-1-yl]-1,2,4-triazin-6-yl}phenol]",461,
"CC(C)[C@H]1CN(c2ncc(-c3ccc(-c4nc(C(F)F)cs4)cc3O)nn2)CCN1 [Cpd 186, 5-[4-(difluoromethyl)-1,3-thiazol-2-yl]-2-{3-[(3S)-3-(propan-2-yl)piperazin-1-yl]-1,2,4-triazin-6-yl}phenol]",77.7,

# The next lines start with the values.
IC50 [1] [nM],"IC50 (Table 3, selected compounds from WO/2019/191229 A1, same MSD assay) [nM]",SMILES
27.5,,"Cc1cn2nc(-c3ccc(-c4cnc(N5C[C@@H](C)N(C)[C@@H](C)C5)nn4)c(O)c3)cc(C)c2n1 [Cpd 111, 5-(2,8-dimethylimidazo[1,2-b]pyridazin-6-yl)-2-{3-[(3R,5S)-3,4,5-trimethylpiperazin-1-yl]-1,2,4-triazin-6-yl}phenol]"
6.7,,"CCN1CCN(c2ncc(-c3ccc(-c4cc(F)c5nc(C)cn5c4)cc3O)nn2)C[C@H]1C [Cpd 89, 2-{3-[(3R)-4-ethyl-3-methylpiperazin-1-yl]-1,2,4-triazin-6-yl}-5-(8-fluoro-2-methylimidazo[1,2-a]pyridin-6-yl)phenol]"
232,,"C[C@H]1CN(c2ncc(-c3ccc(-c4cn[nH]c4)cc3O)nn2)C[C@@H](C2CC2)N1 [Cpd 224, 2-{3-[(3R,5S)-3-cyclopropyl-5-methylpiperazin-1-yl]-1,2,4-triazin-6-yl]-5-(1H-pyrazol-4-yl)phenol]"
36.6,,"CC[C@H]1CN(c2ncc(-c3ccc(-c4cnc5nn(C)nc5c4)cc3O)nn2)C[C@@H](C)N1 [Cpd 214, 2-{3-[(3S,5R)-3-ethyl-5-methylpiperazin-1-yl]-1,2,4-triazin-6-yl]-5-(2-methyl-2H-[1,2,3]triazolo[4,5-b]pyridin-6-yl)phenol]"
18.6,,"CC(C)(C)[C@H]1CN(c2ncc(-c3ccc(-c4cn5ncnc5cn4)cc3O)nn2)CCN1 [Cpd 129, 2-{3-[(3S)-3-tert-butylpiperazin-1-yl]-1,2,4-triazin-6-yl}-5-([1,2,4]triazolo[1,5-a]pyrazin-6-yl)phenol]"
150,,"CC(C)CC1CN(c2ncc(-c3ccc(-c4cn[nH]c4)cc3O)nn2)CCN1 (stereo not drawn) [Cpd 46, 2-{3-[3-(2-methylpropyl)piperazin-1-yl]-1,2,4-triazin-6-yl}-5-(1H-pyrazol-4-yl)phenol]"
22.3,,"CC(C)C1CN(c2ncc(-c3ccc(-c4cn[nH]c4)cc3O)nn2)CCN1 (stereo not drawn) [Cpd 22, 2-{3-[3-(propan-2-yl)piperazin-1-yl]-1,2,4-triazin-6-yl}-5-(1H-pyrazol-4-yl)phenol]"
125,,"CC(C)[C@H]1CN(c2ncc(-c3ccc(-c4cnc5nsnc5c4)cc3O)nn2)CCN1 [Cpd 264, 2-{3-[(3S)-3-(propan-2-yl)piperazin-1-yl]-1,2,4-triazin-6-yl}-5-([1,2,5]thiadiazolo[3,4-b]pyridin-6-yl)phenol]"
